Laboratory results from patent US9112158B1, “Asymmetric styrene derivatives having carbazole and aniline and organic light emitting diode using the same” (National Tsing Hua University, priority 2014, dated 2015).

Assay: solubility of the compound in toluene
Assay type: physicochemical

| Solubility [wt %] | Structure (SMILES) |
| --- | --- |
| >1 | C(=C\c1ccc(N(c2ccccc2)c2ccccc2)cc1)/c1ccc(-c2ccc(/C=C/c3ccc4c(c3)c3ccccc3n4-c3ccccc3)cc2)cc1 [PCzDPA, N,N-diphenyl-4-[(E)-2-(4-{4-[(E)-2-(9-phenyl-9H-carbazol-3-yl)ethenyl]phenyl}phenyl)ethenyl]aniline] |
| >1 | C(=C\c1ccc(N(c2ccccc2)c2cccc3ccccc23)cc1)/c1ccc(-c2ccc(/C=C/c3ccc4c(c3)c3ccccc3n4-c3ccccc3)cc2)cc1 [PCzNA, N-phenyl-N-{4-[(E)-2-(4-{4-[(E)-2-(9-phenyl-9H-carbazol-3-yl)ethenyl]phenyl}phenyl)ethenyl]phenyl}naphthalen-1-amine] |
